Results taken from patent US12636284B2, “Compositions for use in the prevention and/or treatment of intellectual disability and neurodegenerative diseases in a subject with down syndrome” (UNIVERSITA' DEGLI STUDI DI ROMA “LA SAPIENZA”, priority 2021, dated 2026).

Legend:
Ts2Cje mice = assay: Novel object recognition (NOR) cognitive test after intranasal treatment; format: in vivo, mouse; settings: Ts2Cje mice 9 months of age; sitagliptin 5 mM intra-nasally, 10 μL/nostril, once a day for 21 days
Text: Finally, animals were sacrificed using cervical dislocation. […] The Novel object recognition (NOR) test is a relatively fast and efficient means of testing different stages of learning and memory in mice. The test is based on a minimum of three sessions: a habituation session (Day 1), a training session (Day 2) and a test session (Day 3). Training simply involves visual exploration of two identical objects, while the test session involves replacing one of the previously explored objects with a new object. Since rodents have an innate preference for novelty, a rodent that remembers the familiar object will spend more time exploring the new object. […] In the habituation stage, each animal can freely explore the arena for 10 minutes (50 cm deep×30 cm wide×30 cm high) in the absence of objects. During the training stage, a single animal is placed in the arena containing two identical objects (two balls) for 10 min. In the testing stage, after 24 hours, the animal is brought back to the arena with two objects, one is the familiar object and the other is a new object (ball+lego). […] In the analysis stage, the discrimination index (DI) and preference index (PI) are evaluated. The discrimination index (DI) allows calculation of the animal's ability to discriminate between new (TN) and familiar (TF) objects [DI=(TN−TF)/(TN+TF)]. […]

[1] = Body weight, body surface area and body mass index during treatment; format: in vivo, mouse; settings: Ts2Cje mice; sitagliptin 5 mM intranasal, 21 days
Experimental: Finally, animals were sacrificed using cervical dislocation.
Furthermore, mice were measured at the beginning and at the end of the treatment to evaluate the length in centimeters (cm). For calculating the body mass surface, the DuBois equation was used: body surface area (m^2)=0.007184×weight ([…])×height ([…]). The body mass index was calculated as the ratio between weight and BSA (gr/m^2). At the end of the treatment, the glucose tolerance test (GTT) was carried out on the four experimental groups. After a fasting period of 6 hours, the animals' basal blood glucose was assessed with a small blood sample from the tail (T0). Subsequently, the same animals were treated with a glucose solution (10%, intraperitoneal injection) and blood glucose was measured with a glucometer (lineD ORO, Bioseven) after 30-60-90-120 minutes.

DYRK1A protein = DYRK1A protein levels in primary hippocampal neurons isolated from Ts2Cje mice; format: cell-based, mouse; settings: 1, 5, 10 μM for 24 hours, vs untreated Ts2Cje
Experimental: For Western blots, 20 μg of proteins from the hippocampus of mice belonging to the four experimental groups were separated by 4-15% SDS-PAGE Criterion™ TGX (Tris-Glyicine eXtended) Stain-Free™ (Bio-rad, Hercules, CAUSE). This type of gel allows a rapid acquisition of the protein run in the ultraviolet (UV) by Chemidoc™ MP imaging systems (Bio-rad, Hercules, CA, USA). Therefore, the gel, once the image has been acquired, represents the total of the loaded proteins (Total Load), which will then be used to normalize the specific proteins to be examined. After electrophoresis and gel imaging, proteins are transferred via the semi-dry TransBlot Turbo apparatus (Bio-Rad Laboratories) onto nitrocellulose membranes (Bio-Rad, Hercules, CA, USA). Nitrocellulose membranes are blocked with 3% bovine serum albumin (BSA) in a solution of Tween 20-TBS and incubated overnight at 4° C. using specific primary antibodies: p(T216)-GSK3B (1:1000, Santa Cruz, #sc-135653), p(S9)-GSK3β (1:1000, Cell Signaling, #5558S), GSK3β (1:1000 Abcam, #93926) and DYRK1A (1:1000, Cell Signaling, #8765S), MAPK44/42 (1:1000, Cell Signaling, #9102), p(Thr202/Tyr204)-MAPK44/42 (1 1000, Cell Signaling, #9101), Akt (1:2000, Bio-Rad, # vma00253K), p(S473) Akt (1:1000, Cell Signaling, #4060S). After three washes with a T-TBS buffer solution, membranes were incubated for 1 hour at room temperature with the secondary antibodies. Secondary antibodies with peroxidase activity are anti-mouse or anti-rabbit (1:5000, Bio-rad, Hercules, CA, USA). Membranes were developed using Clarity Enhanced Chemiluminescence (ECL), a chemiluminescent substrate (Bio-rad, Hercules, CA, USA) and acquired with Chemidoc Mp (Bio-rad, Hercules, CA, USA). Finally, the results obtained were analyzed using the ImageLab program (Bio-rad, Hercules, CA, USA).
In order to isolate primary hippocampal neurons, hippocampi from Ts and euploid mice were mechanically dissociated in PBS (with Ca^2+ and Mg^2−) and centrifuged (3 minutes, 1100 rpm, 25° C.). […]

N[C@@H](CC(=O)N1CCn2c(nnc2C(F)(F)F)C1)Cc1cc(F)c(F)cc1F [sitagliptin, (R)-4-oxo-4-[3-(trifluoromethyl)-5,6-dihydro[1,2,4]triazole[4,3-a]pyrazin-7(8H)-yl]-1-(2,4,5-trifluorophenyl)butan-2-amine]
cognitive performance, novel object recognition (NOR) (Ts2Cje mice): marked improvement in cognitive performance | phenotypic or morphometric changes (weight, BSA, BMI) [1]: no phenotypic or morphometric changes | levels of the DYRK1A protein in Ts2Cje neurons (DYRK1A protein): significant reduction
